System: dyslipidemic patients with renal impairment
Assay: Example 3 phase III 52-week trial: cholesterol in lipoprotein subclasses by HPLC
Type: in vivo, human
Settings: for Small LDL-C Week 52 (LOCF) / VLDL-C % Change from baseline at Week 52 (LOCF) / VLDL-C Week 52 (LOCF) / Very large HDL-C % Change from baseline at Week 52 (LOCF) / Very large HDL-C Week 52 (LOCF) / Very small HDL-C % Change from baseline at Week 52 (LOCF) / Very small HDL-C Week 52 (LOCF) / Very small LDL-C % Change from baseline at Week 52 (LOCF) / Very small LDL-C Week 52 (LOCF) / CM-C % Change from baseline at Week 52 (LOCF) / CM-C Week 52 (LOCF) / Large HDL-C % Change from baseline at Week 52 (LOCF) / Large HDL-C Week 52 (LOCF) / Large LDL-C % Change from baseline at Week 52 (LOCF) / Large LDL-C Week 52 (LOCF) / Medium HDL-C % Change from baseline at Week 52 (LOCF) / Medium HDL-C Week 52 (LOCF) / Medium LDL-C % Change from baseline at Week 52 (LOCF) / Medium LDL-C Week 52 (LOCF) / Small HDL-C % Change from baseline at Week 52 (LOCF) / Small HDL-C Week 52 (LOCF) / Small LDL-C % Change from baseline at Week 52 (LOCF): 0.2 (0.4) mg/day
Description: This was a multicenter, single-arm, open-label, phase III trial. The inclusion criteria were as follows: (1) patients with dyslipidemia aged >20 years at the time of informed consent; (2) men and postmenopausal women; (3) fasting serum TG≥1.70 mmol/L (150 mg/dL) at two consecutive measurements during screening; and (4) patients who followed dietary and physical exercise guidance for >12 weeks before enrollment.
The major exclusion criteria were as follows: (1) patients with fasting serum TG≥5.65 mmol/L (500 mg/dL) during screening; (2) patients with poorly controlled diabetes mellitus (hemoglobin A1c [HbA1c]≥10.5%); (3) patients with concurrent poorly controlled thyroid disease; (4) men with serum creatinine ≥2.5 mg/dL and women with serum creatinine ≥2.0 mg/dL during screening who were already on statin therapy; (5) patients with eGFR<45 mL/min/1.73 m^2 during screening who were already on statin therapy; (6) patients with CK>5ULN (270 IU/L for men, 150 IU/L for women) during screening who were already on statin therapy; (7) patients with serious liver disease (cirrhosis Child-Pugh Class B or higher); (8) patients with gallstones or serious biliary tract disease; (9) patients who had suffered an acute myocardial infarction or stroke within three months before informed consent; and (10) patients with New York Heart Association class III or IV heart failure.
During the screening period (8 weeks prior to treatment initiation), tests were performed twice to determine patient eligibility. Thereafter, eligible patients orally received pemafibrate 0.2 mg/day (twice daily) for 52 weeks. From week 12 of the treatment period onwards, the investigators were instructed that the dose could be increased from 0.2 mg/day to 0.4 mg/day (twice daily) if there was an inadequate response to the initial dose based on fasting serum TG levels ≥1.70 mmol/L (150 mg/dL). Fasting blood and urine samples were collected at each visit. Blood and urine sample in patients with hemodialysis were collected just before dialysis. LDL-C levels were measured using the direct method. […]
The primary efficacy endpoint was the percent change in fasting serum TG from baseline to the last evaluation point. The primary safety endpoints were the incidence of an AE or ADR occurring after drug administration during the study. Secondary efficacy endpoints included percent changes in lipid variables and changes in inflammation variables at week 52 [using the last-observation-carried-forward (LOCF)]. Secondary safety endpoints included changes in the levels of aspartate aminotransferase (AST), ALT, -GT, ALP, serum creatinine, eGFR, and CK at week 52. Each baseline value was defined as (1) the mean of the corresponding values in the first and second tests at the screening examination and at week 0 of the treatment period for fasting serum TG, HDL-C, total cholesterol (TC), LDL-C, and non-HDL-C; and (2) the value at week 0 of the treatment period for the other secondary variables.
The numbers of patients with AEs and ADRs and the incidences of AEs and ADRs were calculated in the analysis of primary safety endpoints. For the secondary efficacy endpoints, one-sample t-tests or Wilcoxon signed-rank tests [for high-sensitivity C-reactive protein (hsCRP) and IL-1] were performed. The secondary safety endpoints were analyzed with Wilcoxon signed-rank tests. A two-sided significance level of 0.05 was used. SAS v. 9.3 (SAS Institute Inc., Cary, N.C., USA) was used for these analyses. Where indicated, the data are expressed as means±standard deviation (SD).

[1] = lowest eGFR group compared with other groups

With `CC[C@@H](Oc1cccc(CN(CCCOc2ccc(OC)cc2)c2nc3ccccc3o2)c1)C(=O)O` [Pemafibrate, (2R)-2-[3-({1,3-benzoxazol-2-yl[3-(4-methoxyphenoxy)propyl]amino}methyl)phenoxy]butanoic acid] the “Small LDL-C Week 52 (LOCF)” value (eGFR G2 (≥60 and <90)) was 0.522 mmol/L, the “VLDL-C % Change from baseline at Week 52 (LOCF)” value (“VLDL-C % Change from baseline” for short) (eGFR G2 (≥60 and <90)) was −25.3% and the “VLDL-C Week 52 (LOCF)” value (eGFR G2 (≥60 and <90)) was 0.834 mmol/L. The “Very large HDL-C % Change from baseline at Week 52 (LOCF)” value (from here on “Very large HDL-C % Change from baseline”) (eGFR G2 (≥60 and <90)) was 4.1%, the “Very large HDL-C Week 52 (LOCF)” value (eGFR G2 (≥60 and <90)) was 0.048 mmol/L and the “Very small HDL-C % Change from baseline at Week 52 (LOCF)” value (“Very small HDL-C % Change from baseline” below) (eGFR G2 (≥60 and <90)) was 30.9%. For the same compound, the “Very small HDL-C Week 52 (LOCF)” value (eGFR G2 (≥60 and <90)) was 0.181 mmol/L, the “Very small LDL-C % Change from baseline at Week 52 (LOCF)” value (shortened to “Very small LDL-C % Change from baseline”) (eGFR G2 (≥60 and <90)) was −9.7% and the “Very small LDL-C Week 52 (LOCF)” value (eGFR G2 (≥60 and <90)) was 0.211 mmol/L. The “CM-C % Change from baseline at Week 52 (LOCF)” value (eGFR G3a-G3b (≥30 and <60)) was −67.7%, the “CM-C Week 52 (LOCF)” value (eGFR G3a-G3b (≥30 and <60)) was 0.038 mmol/L and the “Large HDL-C % Change from baseline at Week 52 (LOCF)” value (eGFR G3a-G3b (≥30 and <60)) was −4.9%. For the same compound, the “Large HDL-C Week 52 (LOCF)” value (eGFR G3a-G3b (≥30 and <60)) was 0.124 mmol/L, the “Large LDL-C % Change from baseline at Week 52 (LOCF)” value (eGFR G3a-G3b (≥30 and <60)) was 59.1% and the “Large LDL-C Week 52 (LOCF)” value (eGFR G3a-G3b (≥30 and <60)) was 0.720 mmol/L. For the same compound, the “Medium HDL-C % Change from baseline at Week 52 (LOCF)” value (eGFR G3a-G3b (≥30 and <60)) was 20.6%, the “Medium HDL-C Week 52 (LOCF)” value (eGFR G3a-G3b (≥30 and <60)) was 0.447 mmol/L and the “Medium LDL-C % Change from baseline at Week 52 (LOCF)” value (eGFR G3a-G3b (≥30 and <60)) was 18.9%. For the same compound, the “Medium LDL-C Week 52 (LOCF)” value (eGFR G3a-G3b (≥30 and <60)) was 1.127 mmol/L, the “Small HDL-C % Change from baseline at Week 52 (LOCF)” value (eGFR G3a-G3b (≥30 and <60)) was 24.6% and the “Small HDL-C Week 52 (LOCF)” value (eGFR G3a-G3b (≥30 and <60)) was 0.467 mmol/L. For the same compound, the “Small LDL-C % Change from baseline at Week 52 (LOCF)” value (eGFR G3a-G3b (≥30 and <60)) was −18.9%, the “Small LDL-C Week 52 (LOCF)” value (eGFR G3a-G3b (≥30 and <60)) was 0.501 mmol/L and the “VLDL-C % Change from baseline” value (eGFR G3a-G3b (≥30 and <60)) was −22.9%. The “VLDL-C Week 52 (LOCF)” value (eGFR G3a-G3b (≥30 and <60)) was 0.892 mmol/L, the “Very large HDL-C % Change from baseline” value (eGFR G3a-G3b (≥30 and <60)) was 5.9% and the “Very large HDL-C Week 52 (LOCF)” value (eGFR G3a-G3b (≥30 and <60)) was 0.051 mmol/L. For the same compound, the “Very small HDL-C % Change from baseline” value (eGFR G3a-G3b (≥30 and <60)) was 19.7%, the “Very small HDL-C Week 52 (LOCF)” value (eGFR G3a-G3b (≥30 and <60)) was 0.180 mmol/L and the “Very small LDL-C % Change from baseline” value (eGFR G3a-G3b (≥30 and <60)) was −15.8%. For the same compound, the “Very small LDL-C Week 52 (LOCF)” value (eGFR G3a-G3b (≥30 and <60)) was 0.207 mmol/L, the “CM-C % Change from baseline at Week 52 (LOCF)” value (eGFR G4-G5 (<30)) was −79.4% and the “CM-C Week 52 (LOCF)” value (eGFR G4-G5 (<30)) was 0.039 mmol/L. For the same compound, the “Large HDL-C % Change from baseline at Week 52 (LOCF)” value (eGFR G4-G5 (<30)) was 5.2%, the “Large HDL-C Week 52 (LOCF)” value (eGFR G4-G5 (<30)) was 0.096 mmol/L and the “Large LDL-C % Change from baseline at Week 52 (LOCF)” value (eGFR G4-G5 (<30)) was 39.9%. For the same compound, the “Large LDL-C Week 52 (LOCF)” value (eGFR G4-G5 (<30)) was 0.689 mmol/L, the “Medium HDL-C % Change from baseline at Week 52 (LOCF)” value (eGFR G4-G5 (<30)) was 53.2% and the “Medium HDL-C Week 52 (LOCF)” value (eGFR G4-G5 (<30)) was 0.336 mmol/L. The “Medium LDL-C % Change from baseline at Week 52 (LOCF)” value (eGFR G4-G5 (<30)) was −2.8%, the “Medium LDL-C Week 52 (LOCF)” value (eGFR G4-G5 (<30)) was 0.920 mmol/L and the “Small HDL-C % Change from baseline at Week 52 (LOCF)” value (eGFR G4-G5 (<30)) was 39.1%. The “Small HDL-C Week 52 (LOCF)” value (eGFR G4-G5 (<30)) was 0.395 mmol/L, the “Small LDL-C % Change from baseline at Week 52 (LOCF)” value (eGFR G4-G5 (<30)) was −38.6% and the “Small LDL-C Week 52 (LOCF)” value (eGFR G4-G5 (<30)) was 0.381 mmol/L. For the same compound, the “VLDL-C % Change from baseline” value (eGFR G4-G5 (<30)) was −28.7%, the “VLDL-C Week 52 (LOCF)” value (eGFR G4-G5 (<30)) was 1.076 mmol/L and the “Very large HDL-C % Change from baseline” value (eGFR G4-G5 (<30)) was 17.1%. For the same compound, the “Very large HDL-C Week 52 (LOCF)” value (eGFR G4-G5 (<30)) was 0.044 mmol/L, the “Very small HDL-C % Change from baseline” value (eGFR G4-G5 (<30)) was 23.5% and the “Very small HDL-C Week 52 (LOCF)” value (eGFR G4-G5 (<30)) was 0.155 mmol/L. The “Very small LDL-C % Change from baseline” value (eGFR G4-G5 (<30)) was −33.4%, the “Very small LDL-C Week 52 (LOCF)” value (eGFR G4-G5 (<30)) was 0.158 mmol/L and the “high-density lipoprotein cholesterol change (observation)” value (lowest eGFR group) was “increase”. The “VLDL-C change (observation)” value [1] was “greatest reduction”, the “chylomicron (CM-C) change (observation)” value [1] was “greatest reduction” and the “small low-density lipoprotein cholesterol change (observation)” value [1] was “greatest reduction”.

Source: patent publication US11446282B2, “Methods of treating mixed dyslipidemia and hypertriglycertdemia” (Kowa Company, Ltd., priority 2017, dated 2022)
